# Reference: USRE36477E, “Benzoic acid derivatives and process for preparing the same” (Taiho Pharmaceutical Co., Ltd., priority 1988, dated 1999)
# pEC50: −log10 of the molar value. Read-outs that look alike come from different tables or passages of the source.
# System: human acute promyelocytic leukemia cells (HL-60)
# Assay: Differentiation of human acute promyelocytic leukemia cells (HL-60), morphological changes of nuclei and NBT reduction
# Type: cell-based
# Settings: for pEC50: Homo sapiens, read-out: ED50 (effective doses which cause differentiation of 50% of the cultured cells)
# Protocol: The test of the activities of the compounds of this invention has been conducted by measuring the concentration required for inducing the differentiation of human acute promyelocytic leukemia cells (HL 60), according to the methods described in detail hereinafter.
# The HL-60 cells are cultured in plastic flasks in RPMI 1640 medium supplemented with 5% heat-inactivated fetal calf serum and antibiotics (penicillin G and streptomycin). The cells (3×10^4 /ml) are cultured with a compound of the present invention for 4 days. The cells are fixed and stained with Wright-Giemsa to examine the morphological changes of the nuclei. […] The biochemical activity of cells treated with the compound is measured as follows:
# The cells after 5 days incubation are centrifuged and diluted with RPMI 1640 medium, supplemented with 5% fetal calf serum, to provide a definite number of the cells. To the diluted cell suspension are then added 200 ng/ml of 12-o-tetradodecanoylphorbol-13-acetate (TPA) and the resulting culture medium is then incubated for 20 minutes at 37° C. in the presence of 0.1% of NBT. Thus, the mature differentiated cells containing blue-black formazan are counted by microscope, so that the ratio of the cells having the ability to reduce NBT, to total cells, can be calculated.
# As a positive control for comparison, the known compounds represented by the formula (II) and trans retinoic acid were used.
Compound,"pEC50 (HL-60, 96 h)","pEC50 (96 h, HL-60 cells, Table 1)","morphological changes of the nuclei (differentiation) (HL-60 cells, 4 days culture, Wright-Giemsa stain)"
C[Si](C)(C)c1cccc(NC(=O)c2ccc(C(=O)O)cc2)c1,7.10,,
C[Si](C)(C)c1cc(NC(=O)c2ccc(C(=O)O)cc2)cc([Si](C)(C)C)c1,,7.70,
C[Si](C)(C)c1cc(C(=O)/C=C/c2ccc(C(=O)O)cc2)cc([Si](C)(C)C)c1,9.70,,
C[Si](C)(C)c1cccc(/C=C/c2ccc(C(=O)O)cc2)c1,7.22,,
CC(C)(C)c1cccc(C(=O)/C=C/c2ccc(C(=O)O)cc2)c1,,7.00,
CC(C)(C)c1cccc(NC(=O)c2ccc(C(=O)O)cc2)c1,,6.00,
CC(C)(C)c1cc(C(=O)/C=C/c2ccc(C(=O)O)cc2)cc(C(C)(C)C)c1,,9.40,
CC1=C(/C=C/C(C)=C/C=C/C(C)=C/C(=O)O)C(C)(C)CCC1 [retinoic acid],8.70,,"differentiated to mature granulocytes (myelocytes, metamyelocytes and neutrophiles)"
